The results in this text go back to publication PMC10139140, “Synthesis of Novel 2-(Cyclopentylamino)thiazol-4(5H)-one Derivatives with Potential Anticancer, Antioxidant, and 11β-HSD Inhibitory Activities” (International Journal of Molecular Sciences, 2023).

The target of this experiment is T1, 11β-HSD1 (Homo sapiens, UniProt P28845).
T1 construct: Human liver microsomes were used as a source of 11β-HSD1 enzyme; tissue XenoTech Lot No. 1410013; host or cells: pooled human liver microsomes, mixed gender
T1 sequence (P28845 whole entry): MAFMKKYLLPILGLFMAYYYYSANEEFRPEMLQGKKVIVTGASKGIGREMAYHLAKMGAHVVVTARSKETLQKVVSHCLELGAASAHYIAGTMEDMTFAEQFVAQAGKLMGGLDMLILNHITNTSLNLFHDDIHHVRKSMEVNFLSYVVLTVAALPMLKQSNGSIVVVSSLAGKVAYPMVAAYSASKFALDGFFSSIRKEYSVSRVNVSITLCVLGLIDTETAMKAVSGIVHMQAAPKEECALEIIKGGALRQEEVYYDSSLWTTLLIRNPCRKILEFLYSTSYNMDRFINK
As to the kind of experiment: Inhibition of 11β-HSD1 (cortisone to cortisol, human liver microsomes, cortisol ELISA). It counts as biochemical. As to conditions: 10 µM, 2.5 h, 37 °C. On the procedure:
The resulting solution with a final volume of 100 µL was incubated for 2.5 h at 37 °C. To stop the reaction, 10 µL of a 100 µM solution of 18β-glycyrrhetinic acid in PBS was added. The level of cortisol obtained in the reaction was measured by commercially available ELISA kit.
As a control, analogous tests without the addition of inhibitors were used. Half the inhibitory concentration (causing 50% reduction of cortisol or cortisone) was read from the chart.
(Liver microsomes are a subcellular fraction often used to study metabolism.)

In general, inhibition refers to the share of the control response that was lost under treatment. A lower inhibition goes with a response near the control. Compound `CC1(C)[C@@H](OC(=O)CCC(=O)O)CC[C@]2(C)[C@H]3C(=O)C=C4[C@@H]5C[C@@](C)(C(=O)O)CC[C@]5(C)CC[C@@]4(C)[C@]3(C)CC[C@@H]12` [carbenoxolone, reference compound] registered an inhibition at 10 µM of 90.4 ± 1.86%.
